Assays:
Format in all cases: tissue-based
[1] = biological target: T1, B2 bradykinin receptor (Rattus norvegicus) (UniProt P25023); experiment: In vitro inhibitory activity against Bradykinin receptor B2 in isolated rat ileum at 0.1 uM
T1 sequence (whole entry): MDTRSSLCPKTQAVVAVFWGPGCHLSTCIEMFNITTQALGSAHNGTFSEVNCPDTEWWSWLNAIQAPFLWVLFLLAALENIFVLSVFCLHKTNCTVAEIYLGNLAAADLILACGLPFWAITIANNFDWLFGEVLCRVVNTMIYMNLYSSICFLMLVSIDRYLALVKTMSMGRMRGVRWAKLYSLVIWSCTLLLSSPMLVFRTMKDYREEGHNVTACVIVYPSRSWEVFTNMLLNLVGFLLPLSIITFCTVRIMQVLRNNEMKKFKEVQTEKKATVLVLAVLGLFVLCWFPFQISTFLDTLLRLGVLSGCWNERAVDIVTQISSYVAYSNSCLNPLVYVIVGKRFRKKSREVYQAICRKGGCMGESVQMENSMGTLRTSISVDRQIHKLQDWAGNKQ

[2] = biological target: Histamine H1 receptor (Cavia porcellus) (UniProt P31389); experiment: In vitro inhibitory activity against histamine H1 receptor in guinea-pig ileum at 0.1 uM
Histamine H1 receptor (Cavia porcellus), sequence (P31389 whole entry): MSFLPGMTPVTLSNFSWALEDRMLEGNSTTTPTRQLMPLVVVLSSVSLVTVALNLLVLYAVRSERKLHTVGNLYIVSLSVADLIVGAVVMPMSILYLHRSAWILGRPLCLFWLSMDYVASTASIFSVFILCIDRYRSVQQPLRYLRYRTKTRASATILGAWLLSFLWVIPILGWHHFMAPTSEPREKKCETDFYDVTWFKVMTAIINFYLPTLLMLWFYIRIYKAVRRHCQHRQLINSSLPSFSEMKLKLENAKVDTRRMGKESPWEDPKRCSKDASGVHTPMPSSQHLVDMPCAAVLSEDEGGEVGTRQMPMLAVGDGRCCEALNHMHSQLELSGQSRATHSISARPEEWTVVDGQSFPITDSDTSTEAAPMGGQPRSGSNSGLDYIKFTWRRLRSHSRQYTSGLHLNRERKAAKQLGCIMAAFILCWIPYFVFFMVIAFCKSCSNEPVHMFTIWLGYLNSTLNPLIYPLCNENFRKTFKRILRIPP

[3] = biological target: T1, B2 bradykinin receptor (Rattus norvegicus); experiment: In vitro inhibitory activity against Bradykinin receptor B2 in isolated rat ileum at 0.1uM; '-' indicates activation

## CC(C)c1ccc(COCCN2CCN(C(c3ccccc3)c3ccc(Cl)cc3)CC2)cc1 (centres undefined)
[1]
  inhibition: 5%
[2]
  inhibition: 77.5%

## O=C(O)COC(CN1CCN(C(c2ccccc2)c2ccc(Cl)cc2)CC1)c1cccc2ccccc12 (centres undefined)
[1]
  inhibition: 26.6%
[2]
  inhibition: 57%

## CCC(OCCN1CCN(C(c2ccccc2)c2ccc(Cl)cc2)CC1)C(=O)O (centres undefined)
[1]
  inhibition: 12.6%
[2]
  inhibition: 10.2%

## O=C(O)C(OCCN1CCN(C(c2ccccc2)c2ccc(Cl)cc2)CC1)c1ccccc1 (centres undefined)
[1]
  inhibition: 9.1%
[2]
  inhibition: 43.7%

## Clc1ccc(C(c2ccccc2)N2CCN(CCCOCc3ccc4ccccc4c3)CC2)cc1 (centres undefined)
[1]
  inhibition: 17.7%
[2]
  inhibition: 26.4%

## Clc1ccc(C(c2ccccc2)N2CCN(CCCOCc3cccc4ccccc34)CC2)cc1 (centres undefined)
[1]
  inhibition: 11.9%
[2]
  inhibition: 63%

## O=C(O)COC(CCN1CCN(C(c2ccccc2)c2ccc(Cl)cc2)CC1)c1ccccc1 (centres undefined)
[1]
  inhibition: 25.4%
[2]
  inhibition: 52.7%

## O=C(O)COCCN1CCN(C(c2ccccc2)c2ccc(Cl)cc2)CC1 (centres undefined)
[1]
  inhibition: 27%
[2]
  inhibition: 50.7%

## COc1ccc(COCCN2CCN(C(c3ccccc3)c3ccc(Cl)cc3)CC2)cc1 (centres undefined)
[1]
  inhibition: 8.7%
[2]
  inhibition: 78.5%

## CC(C)(COCC(=O)O)CN1CCN(C(c2ccccc2)c2ccc(Cl)cc2)CC1 (centres undefined)
[1]
  inhibition: 33.4%
[2]
  inhibition: 42.9%

## CC(CN1CCN(C(c2ccccc2)c2ccc(Cl)cc2)CC1)(OCC(=O)O)c1ccccc1 (centres undefined)
[1]
  inhibition: 45.6%
[2]
  inhibition: 12.5%

## Clc1ccc(C(c2ccccc2)N2CCN(CCOCc3ccc4ccccc4c3)CC2)cc1 (centres undefined)
[3]
  inhibition: -9.5%
[2]
  inhibition: 10%

## CC(COCC(=O)O)CN1CCN(C(c2ccccc2)c2ccc(Cl)cc2)CC1 (centres undefined)
[1]
  inhibition: 25%
[2]
  inhibition: 14.3%

## O=C(O)COC(CCc1ccccc1)CN1CCN(C(c2ccccc2)c2ccc(Cl)cc2)CC1 (centres undefined)
[3]
  inhibition: -3.7%
[2]
  inhibition: 11%

## Clc1ccc(C(c2ccccc2)N2CCN(CCOCc3cccc4ccccc34)CC2)cc1 (centres undefined)
[1]
  inhibition: 17%
[2]
  inhibition: 20%

## O=C(O)Cc1ccc(COCCN2CCN(C(c3ccccc3)c3ccc(Cl)cc3)CC2)cc1 (centres undefined)
[1]
  inhibition: 36.6%
[2]
  inhibition: 28.4%

## COc1cccc(COCCN2CCN(C(c3ccccc3)c3ccc(Cl)cc3)CC2)c1 (centres undefined)
[3]
  inhibition: -10%
[2]
  inhibition: 33%

Reference: ChEMBL document CHEMBL1131983, “Synthesis of piperazine derivatives and evaluation of their antihistamine and antibradykinin effects” (Bioorg Med Chem Lett, 1999)
